The values below come from PubChem BioAssay (NCI).

Several values for one entry are separate records, joined by “and”; a condition that tells them apart may be missing. Identical values can stand only once.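 Interpolation was linear, between the two tested concentrations surrounding the appropriate level; five concentrations were tested over 48 hours in 96-well plates. At the GI50, growth is halved. TGI: concentration producing complete growth inhibition.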

Assay in all cases: NCI anticancer screen, dose series, 48 h
Test [1] deals with BT-549 breast.
Test [2] concerns HS 578T breast.
For test [3], the system named is MDA-N.

As to `CC1(C)N=C(N)N=C(N)N1c1cc(Cl)ccc1Cl`, in test [1], the GI50 is greater than 100 µM and the TGI is greater than 100 µM.
On to `O=C(Nc1ccc(Cl)cc1)c1cc2ccccc2cc1O`, for which, in test [2], the GI50 is 2.68 µM and the TGI was 11.9 µM.
For the compound `COc1nc(C)cc2c(=O)n(-c3ccccc3)n(CCCN3CCN(c4ccc(Cl)cc4)CC3)c(=O)c12`, in test [2], the GI50 was 27.4 µM and the TGI is greater than 50 µM.
`O=C(Oc1ccc(CCl)cc1)c1ccccc1`: in test [2], the GI50 is 0.121 µM and the TGI is 0.438 µM. Besides, in test [1], the GI50 was 0.154 µM and the TGI worked out at 0.295 µM.
As for `COC(=O)Nc1nc2ccccc2c(=O)[nH]1`, the TGI in test [3] was 50.8 µM; in test [2], greater than 100 µM; in test [1] it was greater than 100 µM.
With `S=C(Nc1ccc(Cl)cc1)Nc1ccc(-c2nc3ccccc3[nH]2)cc1`, in test [2], the GI50 is 6.49 µM and the TGI came out at 60.6 µM. In test [1], the GI50 is 19.1 µM and the TGI was found to be 53.1 µM.
Turning to `C=C(CN1CCc2ccccc2C1)c1ccc(C(=O)Nc2ccc(N)cc2)cc1`, in test [2], the GI50 is 29.8 µM and the TGI is greater than 100 µM.
For the compound `COc1ccc(-c2nc(-c3cn(C)c4ncccc34)cs2)cc1`, in test [2], the GI50 is greater than 100 µM and the TGI is greater than 100 µM. Besides, in test [1], the GI50 is 68 µM and the TGI was greater than 100 µM.
`COc1ccc(-c2nc(-c3ccccc3)c(-c3ccccc3)n2C2CC2)cc1OC1CCCC1`: in test [2], the GI50 is 26.3 µM and the TGI is greater than 165 µM. In test [1], the GI50 was greater than 165 µM and the TGI was greater than 165 µM.
`CCN(CC)CCCCCCCNc1c2ccc(Cl)cc2nc2ccc(OC)cc12`: in test [2], the GI50 is 1.79 µM and the TGI was found to be 4.39 µM. In test [1], the GI50 is 1.68 µM and the TGI was 3.28 µM.
Regarding `O=C1C=Cc2ccccc2/C1=C/c1[nH]c(=O)[nH]c1O`, in test [1], the GI50 is 6.75 µM and the TGI came out at 96.3 µM.
With `O=C(NOCC1CC1)c1ccc(F)c(F)c1Nc1ccc(I)cc1Cl`, in test [2], the GI50 was 4.85 µM and the TGI was greater than 92 µM. In test [1], the GI50 was 3.39 µM and the TGI was greater than 100 µM.
The like results for `N=C(N)CCCCCCCCC(=N)N` were, in that order, 29.2 µM, greater than 100 µM, 27.2 µM and greater than 100 µM.
Consider `O=C(CCCn1ccnc1[N+](=O)[O-])NCCn1ccnc1`, for which the TGI in test [2] and in test [1] was greater than 100 µM in each case.
On to `COC(=O)/C(=C\c1c(C)[nH]c2ccccc12)S(=O)(=O)c1ccccc1`, for which, in test [2], the GI50 was 2.85 µM and the TGI turned out to be 13.6 µM. In test [1], the GI50 is 5.4 µM and the TGI was determined as 25.5 µM.
`COc1cc2c(/C=C3/C(=O)Nc4ccccc43)c(Cl)n(Cc3ccccc3[N+](=O)[O-])c2cc1C`: the figures for the GI50 in test [2] and in test [1] were 15 µM and 9.16 µM, respectively. In addition, the TGI in test [2] was 94 µM; in test [1] it was 27.8 µM.
Regarding `O=C(Nc1ncc(Cc2ccccc2Cl)s1)c1ccc2c(c1)OCCO2`, in test [2], the GI50 was 0.354 µM and the TGI was found to be 35.5 µM. Moreover, in test [1], the GI50 was 0.567 µM and the TGI was greater than 100 µM.
Turning to `OCCCCC#Cc1ccccc1C#Cc1ccccc1C(F)(F)F`, in test [2], the GI50 was 11.8 µM and the TGI is 37.1 µM. In addition, in test [1], the GI50 was 17.1 µM and the TGI came out at 31.7 µM.
Take `CNC(=O)c1cccc(-c2ccc3c(N4CCOC[C@@H]4C)nc(N4CCOC[C@@H]4C)nc3n2)c1`: in test [2], the GI50 was 0.0627 µM and 0.0618 µM and 0.116 µM; the TGI is 0.448 µM and 0.32 µM and 0.459 µM. Also, in test [1], the GI50 is 0.0436 µM and 0.0953 µM and 0.0614 µM; the TGI was 1.38 µM and 1.08 µM and 0.648 µM.
As for `CC(NNC(=S)N1CCCCCC1)c1ccc2ccccc2n1` (stereo not drawn), in test [2], the GI50 is 14.5 µM and the TGI was greater than 100 µM. In test [1], the GI50 is 7.45 µM and the TGI worked out at 58.9 µM.
Take `COc1ccc(/C=C\c2cc(OC)c(OC)c(OC)c2)cc1OCC(=O)Nc1nc2ccc(C(F)(F)F)cc2s1`: the results for the GI50 in test [2] and in test [1] were 4.18 µM and 5.23 µM, respectively. For the same compound, the TGI in test [2] and in test [1] was greater than 100 µM each time.
For `O=c1cc(-c2ccccc2)nc2n1CCN2Cc1ccccc1`, the GI50 in test [2] is 26.9 µM; in test [1] it was 26.6 µM. Besides, the TGI in test [2] amounted to 81.7 µM; in test [1] it was 67.2 µM.
The like results for `Cc1cc(S(=O)(=O)Nc2nnc(-c3ccccc3)c(-c3ccccc3)n2)c(SCc2ccccc2)cc1Cl` were, in that order, 19.1 µM, 18.9 µM, 52.8 µM and 41.8 µM.
The like results for `Cc1ccc2c(=O)c3cccc(CC(=O)O)c3oc2c1C` were, in that order, greater than 100 µM, greater than 100 µM, greater than 100 µM and greater than 100 µM.
For `C=C1C(=O)O[C@H]2[C@H]1CC/C(Cn1cc(-c3ccccc3)nn1)=C\CC[C@@]1(C)O[C@@H]21` the same measures were 9.78 µM, 2.65 µM, 29.6 µM and 8.97 µM.
With `O=C1c2ccccc2-c2c1c1ccccc1c(=O)n2CCCN1CCOCC1`, in test [2], the GI50 was 4.15 µM and the TGI was determined as 14.8 µM. Moreover, in test [1], the GI50 was 8 µM and the TGI worked out at 25.5 µM.
For `O=C1OC(=O)C2C1C1(c3ccccc3)C(c3ccccc3)=C(c3ccccc3)C2(c2ccccc2)S1=O` (stereo not drawn), in test [1], the GI50 is 26.3 µM and the TGI is greater than 100 µM.
Consider `Cc1cc2c(F)c(Oc3ncnn4cc(OC[C@@H](C)OC(=O)[C@H](C)N)c(C)c34)ccc2[nH]1`, for which, in test [2], the GI50 was 9.36 µM and the TGI is 44.2 µM. In addition, in test [1], the GI50 was 8.43 µM and the TGI came to 22 µM.
For `CCN(CC)CCOc1ccc(/C=C2\CC3C4CC=C5C[C@@H](N6CCCC6)CC[C@]5(C)C4CC[C@]3(C)[C@H]2O)cc1OC` (stereo partly drawn) the same measures were 0.76 µM, 13.6 µM, 4.7 µM and 19.3 µM.
With `CCSc1nc(N=Cc2cccs2)c2cn[nH]c2n1`, in test [2], the GI50 was 16.2 µM and the TGI is greater than 100 µM. Besides, in test [1], the GI50 was greater than 100 µM and the TGI is greater than 100 µM.
Regarding `CN(C)CCCNC(=O)c1cc(NC(=O)c2cc(NC(=O)c3cc(NC(=O)CCc4c[nH]c5ccccc45)cn3C)cn2C)cn1C`, in test [2], the GI50 is 0.0701 µM and the TGI was greater than 100 µM. In test [1], the GI50 was greater than 100 µM and the TGI was greater than 100 µM.
As for `C[C@]12CC[C@@H]3c4ccc(O)cc4CC[C@H]3[C@@H]1CC[C@@H]2NS(=O)(=O)Cc1ccc(Cl)cc1`, the GI50 was 2.4 µM in test [2] and 2.35 µM in test [1]. Also, the results for the TGI in test [2] and in test [1] were 7.46 µM and 5.74 µM, respectively.
For `Cc1ccc2c(N)c(C(=O)N[C@H]3CCc4cc(N5CC6CCC(C5)N6)ccc4C3)sc2n1` the same measures were 0.58 µM, 0.927 µM, 2.44 µM and 3.06 µM.
For `CCOC(=O)Oc1c(OC)cc(C(=O)O[C@@H]2C[C@@H]3CN4CCc5c([nH]c6cc(OC)ccc56)[C@H]4C[C@@H]3[C@H](C(=O)OC)[C@H]2OC)cc1OC`, in test [2], the GI50 was 7.09 µM and the TGI amounted to 55.9 µM. For the same compound, in test [1], the GI50 was 9.08 µM and the TGI worked out at 24.1 µM.
The like results for `Cc1[nH]c(/C=C2\C(=O)Nc3ccc(F)cc32)c(C)c1C(=O)NC[C@H](O)CN1CCOCC1` were, in that order, 2.12 µM, greater than 10 µM, 6.47 µM and greater than 10 µM.
For `Nc1ccccc1C#C/C=C\C#Cc1ccc(Cl)cc1Cl` the same measures were 3.61 µM, 8.49 µM, 12.4 µM and 28.7 µM.
For `C/C=C(\C)C(=O)O[C@H]1C=CC(=O)O[C@H]1CNC(=O)[C@H](C)O`, in test [2], the GI50 was 18.6 µM and the TGI turned out to be 47.2 µM.
For the compound `S=C(N/N=C/c1ccccn1)Nc1ccccn1`, in test [2], the GI50 is 4.8 µM and the TGI is greater than 100 µM. In test [1], the GI50 is 1.99 µM and the TGI is greater than 100 µM.
For `O=[N+]([O-])/C=C/c1c[nH]c2ccccc12`, the GI50 is 21.2 µM in test [2] and 14.1 µM in test [1]. In addition, the TGI was found to be 66.6 µM in test [2] and 27.5 µM in test [1].
Take `Cc1nc2cccc(NCc3ccc(C(=O)NO)cc3)c2c(=O)n1-c1ccccc1`: in test [2], the GI50 was 3.04 µM and the TGI was greater than 100 µM. Moreover, in test [1], the GI50 is 2.8 µM and the TGI worked out at 8.1 µM.
